Data from patent US20140308244A1, “Combination Therapy for Treatment of Inflammatory Demyelinating Disease” (The Board of Trustees of the Leland Stanford Junior …, priority 2011, published 2014).

Legend:
[1] = test system: experimental autoimmune encephalomyelitis (EAE); conditions: mouse model for multiple sclerosis; Platten et al, 2009, PNAS 106:14948; cited from earlier work
[2] = test system: EAE; assay: EAE relapse model: Rebif and/or Lisinopril treatment initiated at peak of disease; type: in vivo; conditions: Rebif daily 0.25 μg/mouse intraperitoneally, Lisinopril 1 mg/kg/day orally
Method: FIG. 2 is a graph of disease scores for EAE, when combination treatment of Rebif and Lisinopril is initiated at the peak of disease.
In this instance, Rebif was given daily (0.25 μg/mouse, intraperitoneally), and Lisinopril was given daily (1 mg/kg/day, orally).

For `NCCCC[C@H](N[C@@H](CCc1ccccc1)C(=O)O)C(=O)N1CCC[C@H]1C(=O)O` [Lisinopril], the “efficacy in treating EAE” value [1] is listed as “effective”, the “Average Relapse Rate” value [2] is listed as 0.7 and the “Average Relapse Rate” value ([2]; listed as PBS/Lisinopril) is listed as 0.70.
